Measured values as given in patent US9108939B2, “(1, 1, 1,3,3,3-hexafluoro-2 hydroxypropan-2-yl) phenyl derivative, pharmaceutical compositions thereof and their use for the treatment of atherosclerosis” (Merck Sharp & Dohme B.V., priority 2009, dated 2015).
pKi: −log10 of the molar value.

molecular target: T1, recombinant human LXRβ-LBD-GST (Homo sapiens, UniProt P55055); experiment: Radioligand competition binding scintillation proximity assay (SpA), LXRβ; conditions: not given
T1 construct: The LBD of LXRα or LXRβ was amplified by PCR and sub-cloned into the prokaryotic expression vector pGEX-4T-1; made in house; host or cells: E. coli
T1 sequence (P55055 222-460 limits assumed): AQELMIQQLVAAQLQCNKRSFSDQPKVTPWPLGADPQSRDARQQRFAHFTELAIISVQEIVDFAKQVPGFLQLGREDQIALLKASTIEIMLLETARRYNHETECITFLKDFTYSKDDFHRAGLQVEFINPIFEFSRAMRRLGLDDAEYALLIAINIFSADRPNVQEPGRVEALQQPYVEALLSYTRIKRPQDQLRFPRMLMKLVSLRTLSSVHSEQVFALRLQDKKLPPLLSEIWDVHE
From the text: Radioligand Competition Binding Scintillation Proximity Assay (SpA) Using Recombinant Human LXRα or LXRβ Protein
These assays utilise the purified ligand binding domain (LBD) of Liver X Receptor alpha (LXRα) or Liver X Receptor beta (LXRβ) fused to […] (GST) tagged protein (LXRα-LBD-GST and LXRβ-LBD-GST respectively) and scintillation proximity assay (SpA) technology to determine binding affinities (pKi) of compounds at the ligand binding domain (LBD) of the human nuclear hormone receptor LXRα or LXRβ.
Preparation of Recombinant Human LXRα and LXRβ
Human LXRα and LXRβ were expressed as GST-fusion proteins in E. coli.
The LBD of LXRα or LXRβ was amplified by PCR and sub-cloned into the prokaryotic expression vector pGEX-4T-1 (GE Healthcare). […] E. coli, containing either the LXRα or LXRβ pGEX-4T-1 plasmid, were propagated, induced, and harvested by centrifugation. The bacterial pellets were resuspended in lysis buffer containing 50 mM tris(Hydroxymethyl)aminomethane (TRIS)-pH 8.0, 100 mM Sodium Chloride (NaCl), 1 mM ethylenediaminetetraacetic acid (EDTA) and one tablet of Proteinase inhibitor cocktail complete/EDTA free (Roche) (per 50 mL of buffer). The mixtures were sonicated on ice with a Branson sonifier. The suspensions were centrifuged and dithiothreitol (DTT) added to the supernatants to obtain a final concentration of 25 mM. […] Proteins were stored in 20 mM N2-hydroxyethylpiperazine-N′-2-ethanesulfonic acid (HEPES), 2 mM DTT with 10% glycerol at −80° C.
Binding to LXRα or LXRβ LBDs
For LXRα or LXRβ assays, an aliquot of recombinant human LXRα-LBD-GST or LXRβ-LBD-GST protein was diluted to 0.5 μg/mL and incubated in a final volume of 100 μL SpA buffer (10 mM potassium hydrogen phosphate anhydrous [K2HPO4], 10 mM potassium Phosphate Monobasic [KH2PO4], 2 mM EDTA pH 7.1, 50 mM NaCl, 1 mM DTT, 2 mM 3-[(3-cholamidopropyl)dimethylammonio]-1-propanesulfonate (CHAPS)) containing Protein-A coupled scintillant filled YtSi SpA beads (GE Healthcare), to a final concentration of 1 mg/mL and Goat anti-GST antibody (GE Healthcare) to a final concentration of 5 μg/mL. […] Test compounds were assayed over a concentration range. After incubation, the assay plates were read on a Packard TopCount.

Structure (SMILES) | pKi
O=C(Nc1ccc(OC2CCN(Cc3ccc(C(O)(C(F)(F)F)C(F)(F)F)cc3)CC2)cc1)Nc1ccnnc1 [Example 1F, 1-(4-(1-(4-(1,1,1,3,3,3-Hexafluoro-2-hydroxypropan-2-yl)benzyl)piperidin-4-yloxy)phenyl)-3-(pyridazin-4-yl)urea] | 8.23

same assay, conditions: read-out: LXRβ pKi (converted)

Structure (SMILES) | Ki
O=C(Nc1ccncc1)Nc1ccc(CC2CCN(Cc3ccc(C(O)(C(F)(F)F)C(F)(F)F)cc3)CC2)cc1F [Example 13, 1-(2-Fluoro-4-((1-(4-(1,1,1,3,3,3-hexafluoro-2-hydroxypropan-2-yl)benzyl)piperidin-4-yl)methyl)phenyl)-3-(pyridin-4-yl)urea] | 5.5 nM
CC(C)(O)CNC(=O)Nc1ccc(CC2CCN(Cc3ccc(C(O)(C(F)(F)F)C(F)(F)F)cc3)CC2)cc1Cl [Example 17, 1-(2-Chloro-4-((1-(4-(1,1,1,3,3,3-hexafluoro-2-hydroxypropan-2-yl)benzyl)piperidin-4-yl)methyl)phenyl)-3-(2-hydroxy-2-methylpropyl)urea] | 6.03 nM
O=C(Nc1ccncc1)Nc1ccc(OC2CCN(Cc3ccc(C(O)(C(F)(F)F)C(F)(F)F)cc3)CC2)cc1 [Example 2, 1-(4-(1-(4-(1,1,1,3,3,3-Hexafluoro-2-hydroxypropan-2-yl)benzyl)piperidin-4-yloxy)phenyl)-3-(pyridin-4-yl)urea] | 2.04 nM
O=C(Nc1ccc(CC2CCN(Cc3ccc(C(O)(C(F)(F)F)C(F)(F)F)cc3)CC2)cc1F)NC1CCOCC1 [Example 12AG, 1-(2-Fluoro-4-((1-(4-(1,1,1,3,3,3-hexafluoro-2-hydroxypropan-2-yl)benzyl)piperidin-4-yl)methyl)phenyl)-3-(tetrahydro-2H-pyran-4-yl)urea] | 21.9 nM
O=C(Nc1ccc(CC2CCN(Cc3ccc(C(O)(C(F)(F)F)C(F)(F)F)cc3)CC2)cc1)Nc1ccncc1F [Example 6S, 1-(3-Fluoropyridin-4-yl)-3-(4-((1-(4-(1,1,1,3,3,3-hexafluoro-2-hydroxypropan-2-yl)benzyl)piperidin-4-yl)methyl)phenyl)urea] | 7.41 nM
CC(C)(O)CNC(=O)Nc1cc(F)c(CC2CCN(Cc3ccc(C(O)(C(F)(F)F)C(F)(F)F)cc3)CC2)cc1F [Example 16, 1-(2,5-Difluoro-4-((1-(4-(1,1,1,3,3,3-hexafluoro-2-hydroxypropan-2-yl)benzyl)piperidin-4-yl)methyl)phenyl)-3-(2-hydroxy-2-methylpropyl)urea] | 24.5 nM
O=C(Nc1ccncn1)Nc1ccc(CC2CCN(Cc3ccc(C(O)(C(F)(F)F)C(F)(F)F)cc3)CC2)cc1F [Example 13B, 1-(2-Fluoro-4-((1-(4-(1,1,1,3,3,3-hexafluoro-2-hydroxypropan-2-yl)benzyl)piperidin-4-yl)methyl)phenyl)-3-(pyrimidin-4-yl)urea] | 9.77 nM
Cc1cc(NC(=O)Nc2ccc(CC3CCN(Cc4ccc(C(O)(C(F)(F)F)C(F)(F)F)cc4)CC3)cc2F)no1 [Example 12E, 1-(2-Fluoro-4-((1-(4-(1,1,1,3,3,3-hexafluoro-2-hydroxypropan-2-yl)benzyl)piperidin-4-yl)methyl)phenyl)-3-(5-methylisoxazol-3-yl)urea] | 9.55 nM
CC(O)(CNC(=O)Nc1ccc(CC2CCN(Cc3ccc(C(O)(C(F)(F)F)C(F)(F)F)cc3)CC2)cc1F)C(F)(F)F (centres unmarked) [Example 12AA, 1-(2-Fluoro-4-((1-(4-(1,1,1,3,3,3-hexafluoro-2-hydroxypropan-2-yl)benzyl)piperidin-4-yl)methyl)phenyl)-3-(3,3,3-trifluoro-2-hydroxy-2-methylpropyl)urea] | 5.75 nM
O=C(Nc1ccc(CC2CCN(Cc3ccc(C(O)(C(F)(F)F)C(F)(F)F)cc3)CC2)cc1)Nc1ccncn1 [Example 7B, 1-(4-((1-(4-(1,1,1,3,3,3-Hexafluoro-2-hydroxypropan-2-yl)benzyl)piperidin-4-yl)methyl)phenyl)-3-(pyrimidin-4-yl)urea] | 4.27 nM
O=C(Nc1ccc(OC2CCN(Cc3ccc(C(O)(C(F)(F)F)C(F)(F)F)cc3)CC2)cc1)Nc1ccncn1 [Example 2E, 1-(4-(1-(4-(1,1,1,3,3,3-Hexafluoro-2-hydroxypropan-2-yl)benzyl)piperidin-4-yloxy)phenyl)-3-(pyrimidin-4-yl)urea] | 3.02 nM
O=C(Nc1ccc(OC2CCN(Cc3ccc(C(O)(C(F)(F)F)C(F)(F)F)cc3)CC2)cc1)Nc1ccncc1F [Example 2C, 1-(3-Fluoropyridin-4-yl)-3-(4-(1-(4-(1,1,1,3,3,3-hexafluoro-2-hydroxypropan-2-yl)benzyl)piperidin-4-yloxy)phenyl)urea] | 2 nM
O=C(Nc1ccncc1)Nc1ccc(CC2CCN(Cc3ccc(C(O)(C(F)(F)F)C(F)(F)F)cc3)CC2)cc1 [Example 7, 1-(4-((1-(4-(1,1,1,3,3,3-Hexafluoro-2-hydroxypropan-2-yl)benzyl)piperidin-4-yl)methyl)phenyl)-3-(pyridin-4-yl)urea] | 7.94 nM
O=C(NCC(O)C(F)(F)F)Nc1ccc(CC2CCN(Cc3ccc(C(O)(C(F)(F)F)C(F)(F)F)cc3)CC2)cc1F (centres unmarked) [Example 12I, 1-(2-Fluoro-4-((1-(4-(1,1,1,3,3,3-hexafluoro-2-hydroxypropan-2-yl)benzyl)piperidin-4-yl)methyl)phenyl)-3-(3,3,3-trifluoro-2-hydroxypropyl)urea] | 2.75 nM
CC(C)(O)CNC(=O)Nc1ccc(CC2CCN(Cc3ccc(C(O)(C(F)(F)F)C(F)(F)F)cc3)CC2)cc1F [Example 12AC, 1-(2-Fluoro-4-((1-(4-(1,1,1,3,3,3-hexafluoro-2-hydroxypropan-2-yl)benzyl)piperidin-4-yl)methyl)phenyl)-3-(2-hydroxy-2-methylpropyl)urea] | 17 nM
O=C(Nc1ccc(CC2CCN(Cc3ccc(C(O)(C(F)(F)F)C(F)(F)F)cc3)CC2)cc1F)NC1COC1 [Example 12AE, 1-(2-Fluoro-4-((1-(4-(1,1,1,3,3,3-hexafluoro-2-hydroxypropan-2-yl)benzyl)piperidin-4-yl)methyl)phenyl)-3-(oxetan-3-yl)urea] | 21.9 nM
O=C(Nc1ccc(OC2CCN(Cc3ccc(C(O)(C(F)(F)F)C(F)(F)F)cc3)CC2)cc1)NC1CCOCC1 [Example 1C, 1-(4-(1-(4-(1,1,1,3,3,3-Hexafluoro-2-hydroxypropan-2-yl)benzyl)piperidin-4-yloxy)phenyl)-3-(tetrahydro-2H-pyran-4-yl)urea] | 9.77 nM
CC(O)(CNC(=O)Nc1cc(F)c(CC2CCN(Cc3ccc(C(O)(C(F)(F)F)C(F)(F)F)cc3)CC2)cc1F)C(F)(F)F (centres unmarked) [Example 16B, 1-(2,5-Difluoro-4-((1-(4-(1,1,1,3,3,3-hexafluoro-2-hydroxypropan-2-yl)benzyl)piperidin-4-yl)methyl)phenyl)-3-(3,3,3-trifluoro-2-hydroxy-2-methylpropyl)urea] | 7.94 nM
O=C(Nc1cnoc1)Nc1ccc(CC2CCN(Cc3ccc(C(O)(C(F)(F)F)C(F)(F)F)cc3)CC2)cc1F [Example 12D, 1-(2-Fluoro-4-((1-(4-(1,1,1,3,3,3-hexafluoro-2-hydroxypropan-2-yl)benzyl)piperidin-4-yl)methyl)phenyl)-3-(isoxazol-4-yl)urea] | 4.9 nM
CC(C)(O)CNC(=O)Nc1ccc(OC2CCN(Cc3ccc(C(O)(C(F)(F)F)C(F)(F)F)cc3)CC2)cc1 [Example 1D, 1-(4-(1-(4-(1,1,1,3,3,3-Hexafluoro-2-hydroxypropan-2-yl)benzyl)piperidin-4-yloxy)phenyl)-3-(2-hydroxy-2-methylpropyl)urea] | 11.5 nM
O=C(Nc1ccc(CC2CCN(Cc3ccc(C(O)(C(F)(F)F)C(F)(F)F)cc3)CC2)cc1F)N[C@H]1CCOC1 [Example 12F, (S)-1-(2-Fluoro-4-((1-(4-(1,1,1,3,3,3-hexafluoro-2-hydroxypropan-2-yl)benzyl)piperidin-4-yl)methyl)phenyl)-3-(tetrahydrofuran-3-yl)urea] | 17 nM
O=C(Nc1ccc(CC2CCN(Cc3ccc(C(O)(C(F)(F)F)C(F)(F)F)cc3)CC2)cc1)NC1COC1 [Example 6P, 1-(4-((1-(4-(1,1,1,3,3,3-Hexafluoro-2-hydroxypropan-2-yl)benzyl)piperidin-4-yl)methyl)phenyl)-3-(oxetan-3-yl)urea] | 9.12 nM
